Among the data in patent US8778919B2, “Cyclic anilino—pyridinotriazines” (Janssen Pharmaceutica NV, priority 2005, dated 2014) are C3.7 score, C3.10 score and melting point values, retold here.

One data set addresses CDK6/cyclinD3 human (Homo sapiens, UniProt Q00534). In words: Kinase profiling C3.7 CDK6/cyclinD3 human. It counts as biochemical. The settings on record: CDK6/cyclinD3, test concentration of 10^−6 M.
In another data set the target is Yes (h) (Homo sapiens, UniProt P07947). Put plainly: Kinase profiling C3.10 Yes human. The settings on record: test concentration of 10^−6 M. The data set is classed as biochemical. How it is done:
The in vitro inhibition of a panel of kinases was assessed using either the glass-fiber filter technology as described by Davies, S. P. et al., Biochem J. (2000), 351; p. 95-105. In the glass-fiber filter technology the activity of the kinase of interest is measured using an appropriate substrate that is incubated with the aforementioned kinase protein in the presence of (^33P) radiolabeled ATP. (^33P) Phosporylation of the substrate is subsequently measured as radioactivity bound on a glassfiber-filter.
All kinases are pre-diluted to a 10× working concentration prior to addition into the assay. The composition of the dilution buffer for each kinase is detailed below.
All substrates are dissolved and diluted to working stocks in de-ionised water, apart from histone H1 that is stored in 10× working stock in 20 mM MOPS pH 7.4.
In a final reaction volume of 25 μl, Yes (h) (5-10 mU) is incubated with 8 mM MOPS pH 7.0, 0.2 mM EDTA, 0.1 mg/ml poly(Glu, Tyr) 4:1, 10 mM MgAcetate and [γ-^33P-ATP] (specific activity approx. 500 cpm/pmol, concentration as required). The reaction is initiated by the addition of the MgATP mix. After incubation for 40 minutes at room temperature, the reaction is stopped by the addition of 5 μl of a 3% phosphoric acid solution. 10 μl of the reaction is then spotted onto a Filtermat A and washed three times for 5 minutes in 75 mM phosphoric acid and once in methanol prior to drying and scintillation counting.

Chain of CDK6/cyclinD3 human (Q00534 whole entry): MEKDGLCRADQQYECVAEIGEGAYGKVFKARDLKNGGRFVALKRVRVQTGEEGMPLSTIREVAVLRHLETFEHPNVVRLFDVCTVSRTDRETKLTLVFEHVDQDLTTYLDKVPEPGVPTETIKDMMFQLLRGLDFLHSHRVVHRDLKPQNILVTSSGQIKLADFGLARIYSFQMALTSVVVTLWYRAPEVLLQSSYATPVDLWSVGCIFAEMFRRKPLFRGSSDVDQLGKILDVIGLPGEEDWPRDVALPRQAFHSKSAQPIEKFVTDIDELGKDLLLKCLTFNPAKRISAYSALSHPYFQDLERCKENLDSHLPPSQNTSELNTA
Chain of CDK6/cyclinD3 human (P30281 whole entry partner): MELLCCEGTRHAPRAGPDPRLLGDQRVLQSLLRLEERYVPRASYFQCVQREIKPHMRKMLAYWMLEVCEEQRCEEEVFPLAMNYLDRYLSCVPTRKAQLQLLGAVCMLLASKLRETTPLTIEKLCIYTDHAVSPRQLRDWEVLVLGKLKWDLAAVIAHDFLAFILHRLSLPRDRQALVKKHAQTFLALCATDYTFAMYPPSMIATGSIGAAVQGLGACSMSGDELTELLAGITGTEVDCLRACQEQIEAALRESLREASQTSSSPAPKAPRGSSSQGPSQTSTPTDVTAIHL
Chain of Yes (h) (P07947 whole entry): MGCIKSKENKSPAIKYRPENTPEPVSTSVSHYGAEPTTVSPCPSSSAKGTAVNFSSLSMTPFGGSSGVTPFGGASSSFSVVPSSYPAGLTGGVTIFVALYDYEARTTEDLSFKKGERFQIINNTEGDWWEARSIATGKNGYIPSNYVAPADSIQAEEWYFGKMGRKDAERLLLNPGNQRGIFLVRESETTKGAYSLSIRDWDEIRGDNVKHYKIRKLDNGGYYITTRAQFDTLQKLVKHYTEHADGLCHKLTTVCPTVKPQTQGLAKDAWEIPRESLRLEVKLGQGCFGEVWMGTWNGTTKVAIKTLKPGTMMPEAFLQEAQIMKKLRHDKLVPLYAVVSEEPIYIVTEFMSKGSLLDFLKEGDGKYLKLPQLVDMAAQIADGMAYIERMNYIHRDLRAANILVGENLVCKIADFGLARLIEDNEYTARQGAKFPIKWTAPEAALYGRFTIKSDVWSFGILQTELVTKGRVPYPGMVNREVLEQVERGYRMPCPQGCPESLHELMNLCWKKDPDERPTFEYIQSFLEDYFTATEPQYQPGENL

For the compound `O=C1CN2CCN(CC2)Cc2cc(Cl)cc(c2)Nc2ncnc(n2)-c2ccnc(c2)CCCN1` [Compound 41], the C3.7 score at CDK6/cyclinD3 human was 1 (Score 1 = 10-30% inhibition).

In the case of `CCN1CC(=O)NCCCc2cccc(c2)-c2ncnc(n2)Nc2cccc(c2)C1` [Compound 54], the C3.7 score at CDK6/cyclinD3 human is recorded as 1 (Score 1 = 10-30% inhibition). Also, the C3.10 score on Yes (h) is on record as 2 (Score 2 = 30-60% inhibition).

`CN1CCCc2cc(ccn2)-c2ncnc(n2)Nc2cccc(c2)CNC(=O)C1` [Compound 7]: the melting point (usually the temperature of the solid-liquid transition) was in the range of 201.9 to 203.3 °C. Moreover, the C3.7 score on CDK6/cyclinD3 human is 1 (Score 1 = 10-30% inhibition). The C3.10 score on Yes (h) was 2 (Score 2 = 30-60% inhibition).

Take `CN1CCC(=O)NCCCc2cc(ccn2)-c2ncnc(n2)Nc2cccc(c2)C1` [Compound 3]: the C3.7 score on CDK6/cyclinD3 human is 2 (Score 2 = 30-60% inhibition). Also, on Yes (h), the C3.10 score is on record as 2 (Score 2 = 30-60% inhibition).

Take `CN1CCN(CCN2CCC(=O)NCCCc3cc(ccn3)-c3ncnc(n3)Nc3cccc(c3)C2)CC1` [Compound 11]: the C3.7 score at CDK6/cyclinD3 human is reported as 1 (Score 1 = 10-30% inhibition). Further, the C3.10 score on Yes (h) is listed as 1 (Score 1 = 10-30% inhibition).

Take `O=C1CCN2CCN(CC2)Cc2cccc(c2)Nc2ncnc(n2)-c2ccnc(c2)CCCN1` [Compound 35]: the C3.7 score at CDK6/cyclinD3 human is 3 (Score 3 = 60-80% inhibition). Further, the C3.10 score on Yes (h) is on record as 2 (Score 2 = 30-60% inhibition).

Regarding `CCN1CCCc2cc(ccn2)-c2ncnc(n2)Nc2cccc(c2)CCNC(=O)C1` [Compound 30], the C3.7 score at CDK6/cyclinD3 human is given as 1 (Score 1 = 10-30% inhibition).

With `O=C1NCCCc2cncc(c2)-c2ncnc(n2)Nc2cccc(c2)CN[C@H]1CO` [Compound 81], the C3.7 score on CDK6/cyclinD3 human is 1 (Score 1 = 10-30% inhibition). At Yes (h), the C3.10 score is 1 (Score 1 = 10-30% inhibition).

With `CN1CC(=O)NC/C(Cl)=C/c2cc(ccn2)-c2ncnc(n2)Nc2cccc(c2)C1` [Compound 2], the C3.7 score on CDK6/cyclinD3 human is 4 (Score 4 = >80% inhibition). On Yes (h), the C3.10 score is reported as 4 (Score 4 = >80% inhibition).

As for `CN1CC(=O)NCCCc2cc(ccn2)-c2ncnc(n2)Nc2cccc(c2)C1` [Compound 8], the C3.7 score on CDK6/cyclinD3 human was 2 (Score 2 = 30-60% inhibition).

For the compound `CN1CC(=O)NCCCc2cc(ccn2)-c2ncnc(n2)Nc2cc(Cl)cc(c2)C1` [Compound 33], the C3.7 score on CDK6/cyclinD3 human is listed as 3 (Score 3 = 60-80% inhibition).

For the compound `O=C1CN2CCN(CC2)Cc2cccc(c2)Nc2ncnc(n2)-c2ccnc(c2)CCCN1` [Compound 9], the C3.7 score at CDK6/cyclinD3 human is 1 (Score 1 = 10-30% inhibition).

As to `CCN1CC(=O)NCCCc2cc(ccn2)-c2ncnc(n2)Nc2cc(Cl)cc(c2)C1` [Compound 34], the C3.7 score on CDK6/cyclinD3 human is on record as 2 (Score 2 = 30-60% inhibition).

On to `CN1CCCC(=O)NCCCc2cc(ccn2)-c2ncnc(n2)Nc2cccc(c2)C1` [Compound 13], for which the C3.7 score on CDK6/cyclinD3 human is 1 (Score 1 = 10-30% inhibition). Moreover, the C3.10 score at Yes (h) was 1 (Score 1 = 10-30% inhibition).

Take `O=C1NCCCc2cc(ccn2)-c2ncnc(n2)Nc2cccc(c2)CN2CCCC12` (stereo not shown) [Compound 12]: at CDK6/cyclinD3 human, the C3.7 score is 1 (Score 1 = 10-30% inhibition). At Yes (h), the C3.10 score is on record as 2 (Score 2 = 30-60% inhibition).

As for `O=C1NCCCc2cc(ccc2F)-c2ncnc(n2)Nc2cc(Cl)cc(c2)CN[C@H]1CO` [Compound 71], on CDK6/cyclinD3 human, the C3.7 score is reported as 2 (Score 2 = 30-60% inhibition). Further, the C3.10 score at Yes (h) is recorded as 4 (Score 4 = >80% inhibition).

On to `O=C1CN2CCN(CC2)Cc2cccc(c2)Nc2ncnc(n2)-c2ccc(F)c(c2)CCCN1` [Compound 66], for which the C3.10 score on Yes (h) is 1 (Score 1 = 10-30% inhibition).

On to `O=C1NCCCc2cccc(c2)-c2ncnc(n2)Nc2cccc(c2)CN[C@H]1CO` [Compound 46], for which the C3.7 score on CDK6/cyclinD3 human is on record as 1 (Score 1 = 10-30% inhibition).

Take `CN1CC(=O)NCCCc2cc(ccn2)-c2ncnc(n2)Nc2cccc(c2)C1` [Compound 10]: the C3.7 score at CDK6/cyclinD3 human was 4 (Score 4 = >80% inhibition). Further, the C3.10 score on Yes (h) is on record as 2 (Score 2 = 30-60% inhibition).

With `O=C1NCCCc2cc(ccn2)-c2ncnc(n2)Nc2cccc(c2)CN2C[C@H](O)C[C@@H]12` [Compound 14], at CDK6/cyclinD3 human, the C3.7 score is given as 1 (Score 1 = 10-30% inhibition). The C3.10 score at Yes (h) is on record as 1 (Score 1 = 10-30% inhibition).

Regarding `O=C1CN2CCN(CC2)Cc2cccc(c2)Nc2ncnc(n2)-c2ccnc(c2)CCCN1` [Compound 36], the C3.7 score on CDK6/cyclinD3 human is reported as 1 (Score 1 = 10-30% inhibition). The C3.10 score at Yes (h) is given as 1 (Score 1 = 10-30% inhibition).

For the compound `O=C1NCCCc2cc(ccn2)-c2ncnc(n2)Nc2cccc(c2)CN2CCCC1C2` (stereo not shown) [Compound 15], the C3.7 score at CDK6/cyclinD3 human is 1 (Score 1 = 10-30% inhibition). For the same compound, at Yes (h), the C3.10 score was 1 (Score 1 = 10-30% inhibition).

In the case of `CN1CC(=O)NCC#Cc2cc(ccn2)-c2ncnc(n2)Nc2cccc(c2)C1` [Compound 1], the melting point was 267.5 to 269.3 °C. In addition, the C3.7 score at CDK6/cyclinD3 human is reported as 4 (Score 4 = >80% inhibition). Moreover, the C3.10 score on Yes (h) was 3 (Score 3 = 60-80% inhibition).
